Measured values: ChEMBL document CHEMBL1681783 (Bioorg Med Chem, 2011)

Tests used:
[1] = molecular target: T1, Squalene synthase (Homo sapiens, UniProt P37268)
T1 sequence (P37268 whole entry): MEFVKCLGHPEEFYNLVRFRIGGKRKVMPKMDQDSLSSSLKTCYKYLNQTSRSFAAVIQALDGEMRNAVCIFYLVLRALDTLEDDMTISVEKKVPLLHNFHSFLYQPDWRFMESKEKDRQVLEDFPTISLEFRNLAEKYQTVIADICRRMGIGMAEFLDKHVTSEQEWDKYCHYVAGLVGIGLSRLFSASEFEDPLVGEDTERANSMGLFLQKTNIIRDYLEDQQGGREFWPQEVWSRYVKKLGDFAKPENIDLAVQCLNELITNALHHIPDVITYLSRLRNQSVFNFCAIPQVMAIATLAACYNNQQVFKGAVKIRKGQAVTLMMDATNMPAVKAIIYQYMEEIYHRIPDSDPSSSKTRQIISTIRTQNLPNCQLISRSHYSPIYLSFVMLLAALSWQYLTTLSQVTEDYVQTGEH
Description: Inhibition of squalene synthase

[2] = organism: Rattus norvegicus; assay: Inhibition of cholesterol synthesis in rat hepatic cells; format: functional, cell-based
[3] = Lipophilicity, log P of the compound; format: physicochemical; details: octanol/water

Structure (SMILES) | IC50 [1] [nM] | IC50 [2] [nM] | logP [3]
CCOC(=O)C1CCCN(C(=O)CCC(=O)N(CC(C)(C)C)c2ccc(Cl)cc2C(O)c2ccccc2F)C1 (configuration not stated) | > 600 | – | –
CCOC(=O)C1CCN(C(=O)CCC(=O)N(C)c2ccc(Cl)cc2C(O)c2ccccc2Cl)CC1 (configuration not stated) | 21000 | – | –
CCCCNC(=O)C1CCN(C(=O)CCC(=O)N(CC(C)(C)C)c2ccc(Cl)cc2C(O)c2ccccc2Cl)CC1 (configuration not stated) | 1.6 | 2000 | –
CNC(=O)C1CCN(C(=O)CCC(=O)N(CC(C)(C)C)c2ccc(Cl)cc2C(O)c2ccccc2Cl)CC1 (configuration not stated) | 1.3 | 900 | –
CCOC(=O)N1CCN(C(=O)CCC(=O)N(CC(C)(C)C)c2ccc(Cl)cc2C(O)c2ccccc2Cl)CC1 (configuration not stated) | 2.3 | – | –
CCOC(=O)C1CCCN(C(=O)CCC(=O)N(CC(C)(C)C)c2ccc(Cl)cc2C(O)c2cccc(OC)c2)C1 (configuration not stated) | > 600 | – | –
CC(C)NC(=O)C1CCN(C(=O)CCC(=O)N(CC(C)(C)C)c2ccc(Cl)cc2C(O)c2ccccc2Cl)CC1 (configuration not stated) | 3.7 | 1600 | –
CC(C)(C)CN(C(=O)CCC(=O)N1CCC(C(=O)O)CC1)c1ccc(Cl)cc1C(O)c1cc(F)ccc1Cl (configuration not stated) | > 600 | – | –
CC(C)(C)CN(C(=O)CCC(=O)N1CCCC(C(=O)O)C1)c1ccc(Cl)cc1C(O)c1cccc(F)c1Cl (configuration not stated) | 8.4 | 1300 | 3
CCOC(=O)C1CCN(C(=O)CCC(=O)N(CC(C)(C)C)c2ccc(Cl)cc2C(O)c2cccc(OC)c2)CC1 (configuration not stated) | 210 | – | –
CCOC(=O)C1CCN(C(=O)CCC(=O)N(CC(C)(C)C)c2ccc(Cl)cc2C(O)c2ccccc2OCC)CC1 (configuration not stated) | 410 | – | –
COc1cccc(C(O)c2cc(Cl)ccc2N(CC(C)(C)C)C(=O)CCC(=O)N2CCC(C(=O)O)CC2)c1OC (configuration not stated) | 2.8 | 1600 | –
CCOc1ccccc1C(O)c1cc(Cl)ccc1N(CC(C)(C)C)C(=O)CCC(=O)N1CCC(C(=O)O)CC1 (configuration not stated) | > 600 | – | –
CCOC(=O)C1CCN(C(=O)CCC(=O)N(CC(C)(C)C)c2ccc(Cl)cc2C(O)c2ccccc2)CC1 (configuration not stated) | 770 | – | –
CC(C)(C)CN(C(=O)CCC(=O)N1CCCC(C(=O)O)C1)c1ccc(Cl)cc1C(O)c1ccccc1 (configuration not stated) | – | – | 2.42
CC(C)(C)CN(C(=O)CCC(=O)N1CCC(C(=O)O)CC1)c1ccc(Cl)cc1C(O)c1cccc2c1OCCO2 (configuration not stated) | 7 | 230 | –
CCOC(=O)CN1CCN(C(=O)CCC(=O)N(CC(C)(C)C)c2ccc(Cl)cc2C(O)c2ccccc2Cl)CC1 (configuration not stated) | 7.9 | 1400 | –
CC(C)(C)CN(C(=O)CCC(=O)NCC1CCCCC1)c1ccc(Cl)cc1C(O)c1ccccc1Cl (configuration not stated) | 220 | 2600 | –
CCOC(=O)C1CCCN(C(=O)CCC(=O)N(CC(C)(C)C)c2ccc(Cl)cc2C(O)c2ccc(F)cc2Cl)C1 (configuration not stated) | > 600 | – | –
CCOC(=O)C1CCN(C(=O)CCC(=O)N(CC(C)(C)C)c2ccc(Cl)cc2C(O)c2cccc(OC)c2OC)CC1 (configuration not stated) | 1.1 | – | –
CCOC(=O)C1CCN(C(=O)CCC(=O)N(CC(C)(C)C)c2ccc(Cl)cc2CO)CC1 | > 6000 | – | –

Structure (SMILES) | IC50 [1] [nM] | IC50 [2] [nM] | logP [3]
CCOC(=O)C1CCCN(C(=O)CCC(=O)N(CC(C)(C)C)c2ccc(Cl)cc2C(O)c2cccc3c2OCCO3)C1 (configuration not stated) | 13 | – | –
CCOC(=O)C1CCN(C(=O)CCC(=O)N(CC(C)(C)C)c2ccc(Cl)cc2C(O)c2ccccc2F)CC1 (configuration not stated) | 0.45 | – | –
COc1cccc(C(O)c2cc(Cl)ccc2N(CC(C)(C)C)C(=O)CCC(=O)N2CCC(C(=O)O)CC2)c1 (configuration not stated) | > 600 | – | –
COc1ccccc1C(O)c1cc(Cl)ccc1N(CC(C)(C)C)C(=O)CCC(=O)N1CCC(C(=O)O)CC1 (configuration not stated) | 1.7 | 600 | –
CCOC(=O)C1CCCN(C(=O)CCC(=O)N(CC(C)(C)C)c2ccc(Cl)cc2C(O)c2cccc(F)c2Cl)C1 (configuration not stated) | 28 | – | –
CC(C)(C)CN(C(=O)CCC(=O)N1CCN(C(=O)OCc2ccccc2)CC1)c1ccc(Cl)cc1C(O)c1ccccc1Cl (configuration not stated) | 1.1 | – | –
CC(C)(C)CN(C(=O)CCC(=O)N1CCCC(C(=O)O)C1)c1ccc(Cl)cc1C(O)c1cc(F)ccc1Cl (configuration not stated) | > 600 | – | 2.8
CC(C)(C)CN(C(=O)CCC(=O)N1CCC(C(=O)O)CC1)c1ccc(Cl)cc1C(O)c1ccccc1Cl (configuration not stated) | 130 | 250 | –
CCOC(=O)C1CCN(C(=O)CCC(=O)N(CC(C)(C)C)c2ccc(Cl)cc2C(O)c2ccc(F)cc2Cl)CC1 (configuration not stated) | 2 | – | –
CN(C)C(=O)C1CCN(C(=O)CCC(=O)N(CC(C)(C)C)c2ccc(Cl)cc2C(O)c2ccccc2Cl)CC1 (configuration not stated) | 97 | – | –
CC(C)(C)CN(C(=O)CCC(=O)N1CCC(C(=O)O)CC1)c1ccc(Cl)cc1C(O)c1cccc(F)c1Cl (configuration not stated) | 17 | 920 | –
CCNC(=O)C1CCN(C(=O)CCC(=O)N(CC(C)(C)C)c2ccc(Cl)cc2C(O)c2ccccc2Cl)CC1 (configuration not stated) | 2.4 | – | –
CCOC(=O)C1CCCN(C(=O)CCC(=O)N(CC(C)(C)C)c2ccc(Cl)cc2C(O)c2ccccc2Cl)C1 (configuration not stated) | 410 | – | –
COc1ccccc1C(O)c1cc(Cl)ccc1N(CC(C)(C)C)C(=O)CCC(=O)N1CCCC(C(=O)O)C1 (configuration not stated) | – | 84 | 2.81
COc1cccc(C(O)c2cc(Cl)ccc2N(CC(C)(C)C)C(=O)CCC(=O)N2CCCC(C(=O)O)C2)c1OC (configuration not stated) | 2 | 1500 | 2.25
CC(C)(C)CN(C(=O)CCC(=O)O)c1ccc(Cl)cc1C(O)c1ccccc1Cl (configuration not stated) | 6500 | – | –
CCOC(=O)C1CCN(C(=O)CCC(=O)N(CC(C)(C)C)c2ccc(Cl)cc2C(O)c2ccccc2OC)CC1 (configuration not stated) | 1.1 | – | –
COC(=O)CCC(=O)N(CC(C)(C)C)c1ccc(Cl)cc1C(O)c1ccccc1Cl (configuration not stated) | 1700 | – | –
CCOC(=O)C1CCCN(C(=O)CCC(=O)N(CC(C)(C)C)c2ccc(Cl)cc2C(O)c2ccccc2OCC)C1 (configuration not stated) | > 600 | – | –
CC(C)(C)CN(C(=O)CCC(=O)N1CCN(S(C)(=O)=O)CC1)c1ccc(Cl)cc1C(O)c1ccccc1Cl (configuration not stated) | 260 | – | –
CCOC(=O)C1CCN(C(=O)CCC(=O)N(CC(C)(C)C)c2ccc(Cl)cc2C(O)c2cccc3c2OCCO3)CC1 (configuration not stated) | 10 | – | –

Structure (SMILES) | IC50 [1] [nM] | IC50 [2] [nM] | logP [3]
CCOC(=O)C1CCN(C(=O)CC(=O)N(CC(C)(C)C)c2ccc(Cl)cc2C(O)c2ccccc2Cl)CC1 (configuration not stated) | > 600 | – | –
CC(C)(C)CN(C(=O)CCC(=O)N1CCC(C(N)=O)CC1)c1ccc(Cl)cc1C(O)c1ccccc1Cl (configuration not stated) | 280 | – | –
CC(C)(C)CN(C(=O)CCC(=O)N1CCCC(C(=O)O)C1)c1ccc(Cl)cc1C(O)c1ccccc1F (configuration not stated) | 290 | 200 | 2.52
CCOC(=O)C1CCCN(C(=O)CCC(=O)N(CC(C)(C)C)c2ccc(Cl)cc2C(O)c2cc(F)ccc2Cl)C1 (configuration not stated) | > 600 | – | –
CCCN(C(=O)CCC(=O)N1CCC(C(=O)OCC)CC1)c1ccc(Cl)cc1C(O)c1ccccc1Cl (configuration not stated) | 600 | – | –
CC(C)(C)CN(C(=O)CCC(=O)N1CCNCC1)c1ccc(Cl)cc1C(O)c1ccccc1Cl (configuration not stated) | 2100 | – | –
CCOC(=O)C1CCCN(C(=O)CCC(=O)N(CC(C)(C)C)c2ccc(Cl)cc2C(O)c2ccccc2OC)C1 (configuration not stated) | 2.6 | – | –
CC(C)(C)CN(C(=O)CCC(=O)N1CCC(C(=O)O)CC1)c1ccc(Cl)cc1C(O)c1ccc(F)cc1Cl (configuration not stated) | > 600 | – | –
CCOc1ccccc1C(O)c1cc(Cl)ccc1N(CC(C)(C)C)C(=O)CCC(=O)N1CCCC(C(=O)O)C1 (configuration not stated) | > 600 | – | 3.32
CCOC(=O)C1CCN(C(=O)CCC(=O)N(CC(C)(C)C)c2ccc(Cl)cc2C(O)c2cccc(F)c2Cl)CC1 (configuration not stated) | 7.2 | – | –
CC(C)(C)CN(C(=O)CCC(=O)N1CCCC(C(=O)O)C1)c1ccc(Cl)cc1C(O)c1ccc(F)cc1Cl (configuration not stated) | 190 | – | 3.28
CC(C)(C)CN(C(=O)CCC(=O)N1CCC(C(=O)O)CC1)c1ccc(Cl)cc1C(O)c1ccccc1F (configuration not stated) | 1700 | > 10000 | –
CCOC(=O)C1CCN(C(=O)CCC(=O)N(CC(C)(C)C)c2ccc(Cl)cc2C(O)c2cc(F)ccc2Cl)CC1 (configuration not stated) | > 600 | – | –
CC(C)(C)CN(C(=O)CCC(=O)N1CCCC(C(=O)O)C1)c1ccc(Cl)cc1C(O)c1cccc2c1OCCO2 (configuration not stated) | 6.8 | 170 | 1.87
COc1cccc(C(O)c2cc(Cl)ccc2N(CC(C)(C)C)C(=O)CCC(=O)N2CCCC(C(=O)O)C2)c1 (configuration not stated) | > 600 | – | 2.35
CCOC(=O)C1CCN(C(=O)CCC(=O)N(CC(C)(C)C)c2ccc(Cl)cc2Cc2ccccc2Cl)CC1 | 650 | – | –
CCOC(=O)C1CCCN(C(=O)CCC(=O)N(CC(C)(C)C)c2ccc(Cl)cc2C(O)c2cccc(OC)c2OC)C1 (configuration not stated) | 1.3 | – | –
CCOC(=O)C1CCN(C(=O)CCCC(=O)N(CC(C)(C)C)c2ccc(Cl)cc2C(O)c2ccccc2Cl)CC1 (configuration not stated) | > 6000 | – | –
CC(C)(C)CN(C(=O)CCC(=O)N1CCCC(C(=O)O)C1)c1ccc(Cl)cc1[C@H](O)c1ccccc1Cl (some centres not stated) | 20 | 270 | 2.98
